≈ marks a conversion by molar mass, not a printed value.
Legend:
Assay in all cases: In vitro antibacterial evaluation: minimum inhibitory concentration (MIC), broth dilution method
Type in all cases: cell-based
[1] = system: Staphylococcus sp.; conditions: broth dilution, 18 hours at 35° C.
Method in brief: (§1)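 MIC by broth dilution in Mueller-Hinton II medium following NCCLS M7-A2. Inoculum was 5×10^5 CFU/mL and antibiotic was tested over 64-0.06 μg/mL. Gram-positive panel included clinical isolates resistant to methicillin, penicillin and/or vancomycin.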

[2] = system: Enterococcus sp.; conditions: for MIC Enterococcus faecalis (GC 2242): strain GC 2242; for MIC Enterococcus faecalis (GC 2691): strain GC 2691; for MIC Enterococcus faecalis (GC 3059): strain GC 3059
Method in brief: as §1

[3] = system: Streptococcus sp.; conditions: for MIC Streptococcus pneumoniae (ATCC 6301): strain ATCC 6301; for MIC Streptococcus pneumoniae (GC 1894): strain GC 1894; for MIC Streptococcus pyogenes (GC 4563): strain GC 4563; for MIC Streptococcus agalactiae (GC 4564): strain GC 4564
Method in brief: as §1

[4] = system: Escherichia coli; conditions: for MIC Escherichia coli (ATCC 25922): strain ATCC 25922; for MIC Escherichia coli (GC 4559): strain GC 4559
Method in brief: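 NCCLS M7-A2 broth dilution with Mueller-Hinton II, testing 64-0.06 μg/mL antibiotic against 5×10^5 CFU/mL inocula. Test strains include recent methicillin-, penicillin- or vancomycin-resistant clinical isolates. MIC is the lowest concentration preventing growth.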

[5] = broth dilution, inoculum 5×10^5 CFU/mL, 18 hours at 35° C.

## CC(c1ccccc1)C1NC(=O)CNC(=O)C(CO)NC(=O)C(C(O)C2CNC(=N)N2C2OC(CO)C(O)C(O)C2O)NC(=O)C(C(O)C2CNC(=NC(=O)C(C)(C)C)N2)NC(=O)C(Cc2ccc(OC3OC(CO)C(OC4OC(CO)C(O)C(O)C4O)C(O)C3O)cc2)NC1=O (stereo not drawn) [Example 155, Cyclo[glycyl-β-methylphenylalanyl-O-(4-O-hexopyranosylhexopyranosyl)tyrosyl-3-[2-[(2,2-dimethylpropanoyl)imino]imidazolidin-4-yl]seryl-3-(3-hexopyranosyl-2-iminoimidazolidin-4-yl)serylseryl]]
[1]; 5×10^5 CFU/mL
  MIC Coagulase Negative Staphylococcus (GC 4547): <0.5 to 2 µg/mL
  MIC Coagulase Negative Staphylococcus (GC 4548): <0.5 to 1 µg/mL
  MIC Coagulase Negative Staphylococcus (GC 4549): <0.5 to 1 µg/mL
  MIC Coagulase Negative Staphylococcus (GC 4551): <0.5 to 1 µg/mL
  MIC Coagulase Negative Staphylococcus (GC 6257): 1 µg/mL (≈ 0.725 µM)
  MIC Coagulase Negative Staphylococcus (ID-3941): <0.5 µg/mL
  MIC Staphylococcus aureus (GC 3051): 0.5 µg/mL (≈ 0.362 µM)
  MIC Staphylococcus aureus (GC 3053): 0.5 µg/mL (≈ 0.362 µM)
  MIC Staphylococcus aureus (GC 4545): 0.5 to 1 µg/mL
  MIC Staphylococcus haemolyticus (GC 4546): <0.5 to 1 µg/mL
[1]; strain GC 3051
  MIC Staphylococcus aureus (GC 3051): 0.5 µg/mL (≈ 0.362 µM)
[1]; strain GC 3053
  MIC Staphylococcus aureus (GC 3053): 0.5 µg/mL (≈ 0.362 µM)
[1]; strain GC 4545
  MIC Staphylococcus aureus (GC 4545): 0.5 to 1 µg/mL
[1]; strain GC 4546
  MIC Staphylococcus haemolyticus (GC 4546): <0.5 to 1 µg/mL
[1]; strain GC 4547
  MIC Coagulase Negative Staphylococcus (GC 4547): <0.5 to 2 µg/mL
[1]; strain GC 4548
  MIC Coagulase Negative Staphylococcus (GC 4548): <0.5 to 1 µg/mL
[1]; strain GC 4549
  MIC Coagulase Negative Staphylococcus (GC 4549): <0.5 to 1 µg/mL
[1]; strain GC 4551
  MIC Coagulase Negative Staphylococcus (GC 4551): <0.5 to 1 µg/mL
[1]; strain GC 6257
  MIC Coagulase Negative Staphylococcus (GC 6257): 1 µg/mL (≈ 0.725 µM)
[1]; strain ID-3941
  MIC Coagulase Negative Staphylococcus (ID-3941): <0.5 µg/mL
[2]; Enterococcus avium (GC 4558), broth dilution, 18 hours at 35° C.
  MIC Enterococcus avium (GC 4558): 0.5 to 1 µg/mL
[2]; Enterococcus faecalis (ATCC 29212), broth dilution, 18 hours at 35° C.
  MIC Enterococcus faecalis (ATCC 29212): 0.5 to 1 µg/mL
[2]; Enterococcus faecalis (GC 4554), broth dilution, 18 hours at 35° C.
  MIC Enterococcus faecalis (GC 4554): 0.5 to 1 µg/mL
[2]; Enterococcus faecalis (GC 6189), broth dilution, 18 hours at 35° C.
  MIC Enterococcus faecalis (GC 6189): 0.5 µg/mL (≈ 0.362 µM)
[2]; Enterococcus faecium (GC 2243), broth dilution, 18 hours at 35° C.
  MIC Enterococcus faecium (GC 2243): <0.5 to 1 µg/mL
[2]; Enterococcus faecium (GC 4556), broth dilution, 18 hours at 35° C.
  MIC Enterococcus faecium (GC 4556): 1 to 2 µg/mL
[2]; Enterococcus faecium (GC 4557), broth dilution, 18 hours at 35° C.
  MIC Enterococcus faecium (GC 4557): 1 to 2 µg/mL
[2]; strain ATCC 29212
  MIC Enterococcus faecalis (ATCC 29212): 0.5 to 1 µg/mL
[2]
  MIC Enterococcus faecalis (GC 2242): 0.5 to 1 µg/mL
  MIC Enterococcus faecalis (GC 2691): 0.5 µg/mL (≈ 0.362 µM)
  MIC Enterococcus faecalis (GC 3059): 0.5 µg/mL (≈ 0.362 µM)
[2]; strain GC 2243
  MIC Enterococcus faecium (GC 2243): <0.5 to 1 µg/mL
[2]; strain GC 4554
  MIC Enterococcus faecalis (GC 4554): 0.5 to 1 µg/mL
[2]; strain GC 4556
  MIC Enterococcus faecium (GC 4556): 1 to 2 µg/mL
[2]; strain GC 4557
  MIC Enterococcus faecium (GC 4557): 1 to 2 µg/mL
[2]; strain GC 4558
  MIC Enterococcus avium (GC 4558): 0.5 to 1 µg/mL
[2]; strain GC 6189
  MIC Enterococcus faecalis (GC 6189): 0.5 µg/mL (≈ 0.362 µM)
[3]
  MIC Streptococcus pneumoniae (ATCC 6301): 0.12 µg/mL (≈ 0.087 µM)
  MIC Streptococcus pneumoniae (GC 1894): 0.12 µg/mL (≈ 0.087 µM)
  MIC Streptococcus pyogenes (GC 4563): >0.12 µg/mL
  MIC Streptococcus agalactiae (GC 4564): <0.12 µg/mL
[3]; strain ID-3187
  MIC Streptococcus pyogenes (ID-3187): <0.5 µg/mL
[4]
  MIC Escherichia coli (ATCC 25922): >64 µg/mL
  MIC Escherichia coli (GC 4559): >64 µg/mL
[4]; strain GC 4560
  MIC Escherichi coli (GC 4560): 0.5 to 2 µg/mL

## CC(c1ccccc1)C1NC(=O)CNC(=O)C(CO)NC(=O)C(C(O)C2CNC(=N)N2C2OC(CO)C(O)C(O)C2O)NC(=O)C(C(O)C2CNC(=N)N2)NC(=O)C(Cc2ccc(OC3OC(CO)C(OC4OC5COC(c6ccc(S(C)(=O)=O)cc6)OC5C(O)C4O)C(O)C3O)cc2)NC1=O (stereo not drawn) [Example 157, Cyclo[glycyl-β-methylphenylalanyl-O-[4-O-[4,6-O-(4-(methylsulfonyl)benzylidene)hexopyranosyl]hexopyranosyl]tyrosyl-3-(2-iminoimidazolidin-4-yl)seryl-3-(3-hexopyranosyl-2-iminoimidazolidin-4-yl)serylseryl]]
[1]; 5×10^5 CFU/mL
  MIC Coagulase Negative Staphylococcus (GC 4547): 16 µg/mL (≈ 10.9 µM)
  MIC Coagulase Negative Staphylococcus (GC 4548): 8 µg/mL (≈ 5.47 µM)
  MIC Coagulase Negative Staphylococcus (GC 4549): 8 µg/mL (≈ 5.47 µM)
  MIC Coagulase Negative Staphylococcus (GC 4551): 32 µg/mL (≈ 21.9 µM)
  MIC Coagulase Negative Staphylococcus (GC 6257): 4 µg/mL (≈ 2.74 µM)
  MIC Staphylococcus aureus (ATCC 29213): 32 µg/mL (≈ 21.9 µM)
  MIC Staphylococcus aureus (GC 1131): 32 µg/mL (≈ 21.9 µM)
  MIC Staphylococcus aureus (GC 3051): 16 µg/mL (≈ 10.9 µM)
  MIC Staphylococcus aureus (GC 3053): 32 µg/mL (≈ 21.9 µM)
  MIC Staphylococcus aureus (GC 4541): 16 µg/mL (≈ 10.9 µM)
  MIC Staphylococcus aureus (GC 4542): 32 µg/mL (≈ 21.9 µM)
  MIC Staphylococcus aureus (GC 4544): 32 µg/mL (≈ 21.9 µM)
  MIC Staphylococcus aureus (GC 4545): 16 µg/mL (≈ 10.9 µM)
  MIC Staphylococcus aureus-SMITH (GC 4543): 16 µg/mL (≈ 10.9 µM)
  MIC Staphylococcus haemolyticus (GC 4546): 16 µg/mL (≈ 10.9 µM)
[1]; strain ATCC 29213
  MIC Staphylococcus aureus (ATCC 29213): 32 µg/mL (≈ 21.9 µM)
[1]; strain GC 1131
  MIC Staphylococcus aureus (GC 1131): 32 µg/mL (≈ 21.9 µM)
[1]; strain GC 3051
  MIC Staphylococcus aureus (GC 3051): 16 µg/mL (≈ 10.9 µM)
[1]; strain GC 3053
  MIC Staphylococcus aureus (GC 3053): 32 µg/mL (≈ 21.9 µM)
[1]; strain GC 4541
  MIC Staphylococcus aureus (GC 4541): 16 µg/mL (≈ 10.9 µM)
[1]; strain GC 4542
  MIC Staphylococcus aureus (GC 4542): 32 µg/mL (≈ 21.9 µM)
[1]; strain GC 4543
  MIC Staphylococcus aureus-SMITH (GC 4543): 16 µg/mL (≈ 10.9 µM)
[1]; strain GC 4544
  MIC Staphylococcus aureus (GC 4544): 32 µg/mL (≈ 21.9 µM)
[1]; strain GC 4545
  MIC Staphylococcus aureus (GC 4545): 16 µg/mL (≈ 10.9 µM)
[1]; strain GC 4546
  MIC Staphylococcus haemolyticus (GC 4546): 16 µg/mL (≈ 10.9 µM)
[1]; strain GC 4547
  MIC Coagulase Negative Staphylococcus (GC 4547): 16 µg/mL (≈ 10.9 µM)
[1]; strain GC 4548
  MIC Coagulase Negative Staphylococcus (GC 4548): 8 µg/mL (≈ 5.47 µM)
[1]; strain GC 4549
  MIC Coagulase Negative Staphylococcus (GC 4549): 8 µg/mL (≈ 5.47 µM)
[1]; strain GC 4551
  MIC Coagulase Negative Staphylococcus (GC 4551): 32 µg/mL (≈ 21.9 µM)
[1]; strain GC 6257
  MIC Coagulase Negative Staphylococcus (GC 6257): 4 µg/mL (≈ 2.74 µM)
[2]; [5]
  MIC Enterococcus avium (GC 4558): 64 µg/mL (≈ 43.8 µM)
  MIC Enterococcus faecalis (ATCC 29212): >64 µg/mL
  MIC Enterococcus faecalis (GC 4552): >64 µg/mL
  MIC Enterococcus faecalis (GC 4553): >64 µg/mL
  MIC Enterococcus faecalis (GC 4554): >64 µg/mL
  MIC Enterococcus faecalis (GC 6189): >64 µg/mL
  MIC Enterococcus faecium (GC 2243): 64 µg/mL (≈ 43.8 µM)
  MIC Enterococcus faecium (GC 4556): >64 µg/mL
  MIC Enterococcus faecium (GC 4557): 8 µg/mL (≈ 5.47 µM)
[2]; strain ATCC 29212
  MIC Enterococcus faecalis (ATCC 29212): >64 µg/mL
[2]
  MIC Enterococcus faecalis (GC 2242): 64 µg/mL (≈ 43.8 µM)
  MIC Enterococcus faecalis (GC 2691): >64 µg/mL
  MIC Enterococcus faecalis (GC 3059): >64 µg/mL
[2]; strain GC 2243
  MIC Enterococcus faecium (GC 2243): 64 µg/mL (≈ 43.8 µM)
[2]; strain GC 4552
  MIC Enterococcus faecalis (GC 4552): >64 µg/mL
[2]; strain GC 4553
  MIC Enterococcus faecalis (GC 4553): >64 µg/mL
[2]; strain GC 4554
  MIC Enterococcus faecalis (GC 4554): >64 µg/mL
[2]; strain GC 4556
  MIC Enterococcus faecium (GC 4556): >64 µg/mL
[2]; strain GC 4557
  MIC Enterococcus faecium (GC 4557): 8 µg/mL (≈ 5.47 µM)
[2]; strain GC 4558
  MIC Enterococcus avium (GC 4558): 64 µg/mL (≈ 43.8 µM)
[2]; strain GC 6189
  MIC Enterococcus faecalis (GC 6189): >64 µg/mL
[3]
  MIC Streptococcus pneumoniae (ATCC 6301): 4 µg/mL (≈ 2.74 µM)
  MIC Streptococcus pneumoniae (GC 1894): 4 µg/mL (≈ 2.74 µM)
  MIC Streptococcus pyogenes (GC 4563): 8 µg/mL (≈ 5.47 µM)
  MIC Streptococcus agalactiae (GC 4564): 16 µg/mL (≈ 10.9 µM)
[3]; strain GC 4565
  MIC Streptococcus pneumoniae (GC 4565): 4 µg/mL (≈ 2.74 µM)
[4]
  MIC Escherichia coli (ATCC 25922): >64 µg/mL
  MIC Escherichia coli (GC 4559): >64 µg/mL
